Eleven compounds from patent US9975870B2, “5,6-dimethoxy-1,1-dioxobenzo[b]thiophene-2-methyloxycarbonyl (DM-Bsmoc) and related amino-protecting groups” (MASSACHUSETTS, UNIVERSITY OF, priority 2013, dated 2018) can be followed below.

The data set can be described thus: Deblocking of substituted Bsmoc p-chloroaniline (R-Bsmoc-PCA) urethanes with piperidine, 1H-NMR monitoring. It counts as physicochemical. The settings on record: for t1/2 2 eq piperidine in CDCl3 (approximate half time for the reaction of R-Bsmoc-PCA urethane and piperidine): 2 eq piperidine in CDCl3, 1H-NMR analysis, approximate values. The text has this:
As an electron-withdrawing substituent the MeSO2 group also enhances the stability of the benzo[b]thiophene-2-methyl system toward acidic reagents and in addition enhances the speed of the deblocking step. […] Tables 1A and 1B show the approximate half times for the reaction of substituted Bsmoc p-chloroaniline derivatives with 2 eq of piperidine in CDCl3 according to ^1H-NMR analysis.
Tables 1A and 1B. Approximate half times for the reaction of R-Bsmoc-PCA urethane and piperidine

Molecules are shown by their SMILES. A value given as a limit tells only on which side of the number the result lay.

For the compound `CC(=O)Nc1ccc2c(c1)C=C(COC(=O)Nc1ccc(Cl)cc1)S2(=O)=O` [5-Ac—NH-Bsmoc-PCA], the “t1/2 2 eq piperidine in CDCl3 (approximate half time for the reaction of R-Bsmoc-PCA urethane and piperidine)” value (from here on “t1/2 2 eq piperidine in CDCl3”) turned out to be 3 min.

As to `O=C(Nc1ccc(Cl)cc1)OCC1=Cc2cc([N+](=O)[O-])ccc2S1(=O)=O` [5-NO2-Bsmoc-PCA], the “t1/2 2 eq piperidine in CDCl3” value is below 1 min.

As for `Cc1ccc2c(c1)C=C(COC(=O)Nc1ccc(Cl)cc1)S2(=O)=O` [5-Me-Bsmoc-PCA], the “t1/2 2 eq piperidine in CDCl3” value is 6 to 7 min.

Consider `Cc1cccc2c1C=C(COC(=O)Nc1ccc(Cl)cc1)S2(=O)=O` [4-Me-Bsmoc-PCA], for which the “t1/2 2 eq piperidine in CDCl3” value amounted to 150 min.

As for `CS(=O)(=O)c1ccc2c(c1)S(=O)(=O)C(COC(=O)Nc1ccc(Cl)cc1)=C2` [6-MeSO2-Bsmoc-PCA], the “t1/2 2 eq piperidine in CDCl3” value was below 1 min.

`CS(=O)(=O)c1ccc2c(c1)C=C(COC(=O)Nc1ccc(Cl)cc1)S2(=O)=O` [5-MeSO2-Bsmoc-PCA]: the “t1/2 2 eq piperidine in CDCl3” value is below 1 min. For the setting “treatment with piperidine in CDCl3, NMR monitoring”, the “speed of deblocking relative to the unsubstituted analog (Bsmoc-NHC6H4-Cl-p)” value was “about six times more readily”.

As to `O=C(Nc1ccc(Cl)cc1)OCC1=Cc2ccc(Cl)cc2S1(=O)=O` [6-Cl-Bsmoc-PCA], the “t1/2 2 eq piperidine in CDCl3” value is 2 min.

For the compound `CC1=C(COC(=O)Nc2ccc(Cl)cc2)S(=O)(=O)c2ccccc21` [3-Me-Bsmoc-PCA], the “t1/2 2 eq piperidine in CDCl3” value was 360 min.

On to `O=C(Nc1ccc(Cl)cc1)OCC1=Cc2cc(Cl)ccc2S1(=O)=O` [5-Cl-Bsmoc-PCA], for which the “t1/2 2 eq piperidine in CDCl3” value is 2 min.

Turning to `O=C(Nc1ccc(Cl)cc1)OCC1=Cc2ccccc2S1(=O)=O` [Bsmoc-PCA, reference compound], the “t1/2 2 eq piperidine in CDCl3” value lay in the range of 6 to 7 min.

Take `COc1cc2c(cc1OC)S(=O)(=O)C(COC(=O)Nc1ccc(Cl)cc1)=C2` [5,6-MeO-Bsmoc-PCA]: the “t1/2 2 eq piperidine in CDCl3” value fell in the range of 3 to 4 min.
